This data set in a line: Solubility of urushiol in 95% ethanol and in water. Format: physicochemical. From the text:
The poison ivy allergen, urushiol, is soluble in 95% ethanol but insoluble in water. Intramuscular injection of urushiol in small volumes of 95% ethanol results in precipitation of large numbers of small insoluble particles as the ethanol is rapidly diluted by interstitial or tissue fluid, resulting in a […] enhancement of tolerogenesis per mg administered urushiol. As the most practical way to make an Ara h2 vaccine with the solubility properties needed to exploit the benefit of this delivery system may be a derivative of a process already known to enhance tolerogenesis, the inventors have the opportunity to see if the synergistic application of two methods of tolerogenesis enhancement yields a sufficiently high ratio of tolerogenicity to allergenicity to constitute a predictably safe and effective treatment for peanut allergy.

Consider urushiol, for which the “solubility in 95% ethanol” value (95% ethanol) was “soluble”. For the same substance, the solubility in water entry (water) was “insoluble”.

The values above are taken from patent US20200222531A1, “METHODS OF POPULATING PRECIPITATED PARTICLES OF A MODIFIED OR SYNTHESIZED SUBSTANCE IN A TISSUE” (priority 2010, published 2020).
